Experimental data published in ChEMBL document CHEMBL1201862, “PubChem BioAssay data set” (2004).
The source made the active and inactive calls. Cut-off read from the data, not from the text of the source: actives have a measured IC50 and inactives only a lower limit.

Biological target: Envelope glycoprotein gp160 (Human immunodeficiency virus 1, UniProt Q6QLK5)
Assay: cell-free HIV fusion peptide-binding blockers – biochemical, uHTS, fluorescence dequenching, […] (AID 1986)

Chain of Envelope glycoprotein gp160 (Q6QLK5 whole entry, the tested form may be a part): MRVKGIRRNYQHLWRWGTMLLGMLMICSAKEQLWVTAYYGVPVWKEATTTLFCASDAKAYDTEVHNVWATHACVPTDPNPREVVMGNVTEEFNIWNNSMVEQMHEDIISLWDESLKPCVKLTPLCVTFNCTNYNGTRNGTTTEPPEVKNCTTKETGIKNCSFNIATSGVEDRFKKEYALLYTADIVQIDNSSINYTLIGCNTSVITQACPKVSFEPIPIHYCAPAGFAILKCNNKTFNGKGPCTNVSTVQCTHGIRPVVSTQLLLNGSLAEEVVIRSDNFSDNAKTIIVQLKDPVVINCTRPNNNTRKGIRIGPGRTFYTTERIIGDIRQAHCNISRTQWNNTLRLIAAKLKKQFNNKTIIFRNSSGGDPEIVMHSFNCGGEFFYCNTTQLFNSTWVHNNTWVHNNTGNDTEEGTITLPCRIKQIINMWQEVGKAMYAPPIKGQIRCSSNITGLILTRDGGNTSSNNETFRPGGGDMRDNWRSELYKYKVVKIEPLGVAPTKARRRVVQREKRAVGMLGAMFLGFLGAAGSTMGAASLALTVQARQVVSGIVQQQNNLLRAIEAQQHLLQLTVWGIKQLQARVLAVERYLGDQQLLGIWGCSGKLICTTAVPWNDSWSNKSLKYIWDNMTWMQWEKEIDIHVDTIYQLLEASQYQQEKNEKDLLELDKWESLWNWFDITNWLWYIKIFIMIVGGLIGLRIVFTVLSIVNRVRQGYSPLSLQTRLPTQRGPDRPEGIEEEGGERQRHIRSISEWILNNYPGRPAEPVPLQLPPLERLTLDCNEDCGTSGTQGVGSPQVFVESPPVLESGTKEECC

O=C(O)c1cc(NN=C2c3ccccc3-c3ccccc32)ccc1Cl
IC50: 23.7 µM (active)

Cc1ccc(-c2cc(C(=O)Nc3ccc(S(=O)(=O)Nc4onc(C)c4C)cc3)c3ccccc3n2)cc1
IC50: 18.1 µM (active)

CCOc1cc(/C=C2\SC(=S)N(C(C(=O)O)c3ccccc3)C2=O)ccc1O (stereo not drawn)
IC50: 22.6 µM (active)
